Assay results reported in patent US10703756B2, “Pyrrolo[2,3-D]pyrimidinyl, pyrrolo[2,3-B]pyrazinyl, pyrrolo[2,3-B]pyridinyl acrylamides and epoxides thereof” (Pfizer Inc., priority 2015, dated 2020).
pIC50: −log10 of the molar value.

Tests used:
JAK3 enzyme = target: T1, JAK3 enzyme (Homo sapiens, UniProt P52333); experiment: JAK Caliper Enzyme Assay at 1 mM ATP; format: biochemical
T1 sequence (P52333 1-1124): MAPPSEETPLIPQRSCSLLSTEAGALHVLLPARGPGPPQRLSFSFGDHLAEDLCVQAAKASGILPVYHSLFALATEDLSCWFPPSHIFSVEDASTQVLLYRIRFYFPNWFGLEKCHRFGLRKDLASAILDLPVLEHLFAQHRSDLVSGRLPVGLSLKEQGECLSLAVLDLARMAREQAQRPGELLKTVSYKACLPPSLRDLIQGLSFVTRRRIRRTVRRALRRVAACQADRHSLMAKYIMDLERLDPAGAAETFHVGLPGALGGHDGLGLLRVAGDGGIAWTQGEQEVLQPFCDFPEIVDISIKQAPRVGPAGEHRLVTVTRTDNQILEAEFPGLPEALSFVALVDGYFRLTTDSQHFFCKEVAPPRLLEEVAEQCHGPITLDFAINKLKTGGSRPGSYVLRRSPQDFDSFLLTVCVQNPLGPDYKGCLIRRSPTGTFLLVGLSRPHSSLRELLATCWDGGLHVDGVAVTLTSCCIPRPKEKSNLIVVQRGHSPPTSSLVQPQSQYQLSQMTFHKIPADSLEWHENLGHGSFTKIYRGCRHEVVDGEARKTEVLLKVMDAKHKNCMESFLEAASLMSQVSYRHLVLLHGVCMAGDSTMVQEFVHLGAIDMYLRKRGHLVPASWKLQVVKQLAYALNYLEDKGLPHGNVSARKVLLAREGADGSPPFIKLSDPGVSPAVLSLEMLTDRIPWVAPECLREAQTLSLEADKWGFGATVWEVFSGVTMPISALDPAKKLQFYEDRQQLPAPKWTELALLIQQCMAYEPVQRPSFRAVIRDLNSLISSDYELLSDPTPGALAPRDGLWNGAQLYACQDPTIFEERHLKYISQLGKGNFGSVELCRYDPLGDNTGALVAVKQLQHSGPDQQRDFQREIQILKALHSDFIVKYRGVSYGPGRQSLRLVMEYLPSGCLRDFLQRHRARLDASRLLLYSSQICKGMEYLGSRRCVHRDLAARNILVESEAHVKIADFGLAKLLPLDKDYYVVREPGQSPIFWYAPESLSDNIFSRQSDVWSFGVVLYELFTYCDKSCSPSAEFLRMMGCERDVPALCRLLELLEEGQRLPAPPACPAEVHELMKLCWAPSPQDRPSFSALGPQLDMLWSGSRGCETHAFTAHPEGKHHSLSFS
Method in brief: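 Read-out: microfluidic mobility-shift separation quantifying substrate peptide versus phosphopeptide. Compounds were tested as 11-point half-log dilutions, top 600 μM in DMSO before transfer. Enzyme level and reaction time were tuned for each prep so conversion stayed at 20%-30%.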

[1] = test system: IL-15 induced P-STAT5 in human PBMC; experiment: PBMC IL-15 Induced P-STAT5; format: cell-based; conditions: human PBMC, IL-15 final 41 ng/mL; read-out: PBMC IL15_pSTAT5_IC50
Method in brief: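 Flow cytometry gated on total lymphocytes measured STAT5 staining (Alexa Fluor 647 antibody, overnight, 4 °C) in fixed, methanol-permeabilised human PBMC. Cells had received compound for 15 min at 37 °C (0.2% DMSO final), followed by 41 ng/mL final human IL-15 for 15 min.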

Row | Compound | pIC50 (JAK3 enzyme) | pIC50 [1]
1 | C=CC(=O)N1C[C@@H](CF)C[C@@H](Nc2ncnc3[nH]ccc23)C1 (single isomer, unassigned) [Example 103] | 7.42 | 6.81
2 | C=CC(=O)N1CC[C@@H](Nc2cnc3[nH]cc(C(=O)NCC)c3n2)[C@@H](C)C1 (single isomer, unassigned) [Example 38] | 7.52 | 6.69
3 | C=CC(=O)N1CCC(N(C)c2cnc3[nH]cc(C(=O)NC(C)C)c3n2)CC1 [Example 64, 2-[(1-acryloylpiperidin-4-yl)(methyl)amino]-N-(propan-2-yl)-5H-pyrrolo[2,3-b]pyrazine-7-carboxamide] | 7.30 | 6.64
4 | C=CC(=O)N1CCC(Nc2cnc3[nH]cc(C(=O)NCC4CC4)c3n2)CC1 [Example 172, 2-[(1-acryloylpiperidin-4-yl)amino]-N-(cyclopropylmethyl)-5H-pyrrolo[2,3-b]pyrazine-7-carboxamide] | 8.30 | 7.09
5 | C=CC(=O)N1CCC(Nc2cnc3[nH]cc(C(=O)NCc4ccccc4)c3n2)CC1 [Example 187, 2-[(1-acryloylpiperidin-4-yl)amino]-N-benzyl-5H-pyrrolo[2,3-b]pyrazine-7-carboxamide] | 8.22 | 7.26
6 | C=CC(=O)N1CCC(Nc2cnc3[nH]cc(C(=O)NCc4cccc(F)c4)c3n2)CC1 [Example 176, 2-[(1-acryloylpiperidin-4-yl)amino]-N-(3-fluorobenzyl)-5H-pyrrolo[2,3-b]pyrazine-7-carboxamide] | 8.52 | 7.62
7 | C=CC(=O)N1CCC(Oc2cnc3[nH]cc(C(=O)NC4CCCC4)c3n2)CC1 (racemic) [Example 204, Racemic-2-[(1-acryloylpiperidin-4-yl)oxy]-N-cyclopentyl-5H-pyrrolo[2,3-b]pyrazine-7-carboxamide] | 7.31 | 6.89
8 | C=CC(=O)N1CCC(Nc2cnc3[nH]cc(C(=O)NCc4ccc(F)c(C#N)c4)c3n2)CC1 [Example 189, 2-[(1-acryloylpiperidin-4-yl)amino]-N-(3-cyano-4-fluorobenzyl)-5H-pyrrolo[2,3-b]pyrazine-7-carboxamide] | 8.22 | 6.69
9 | C=CC(=O)N1C[C@@H](CC#N)C[C@@H](Nc2ncnc3[nH]ccc23)C1 (racemic) [Example 105, Cis-racemic-[1-acryloyl-5-(7H-pyrrolo[2,3-d]pyrimidin-4-ylamino)piperidin-3-yl]acetonitrile] | 7.27 | 6.49
10 | C=CC(=O)N1C[C@@H](CC#N)C[C@@H](Nc2ncnc3[nH]ccc23)C1 (single isomer, unassigned) [Example 106] | 7.60 | 6.72
11 | C=CC(=O)N1CC[C@@H](Nc2cnc3[nH]cc(C(=O)NCC)c3n2)[C@@H](C)C1 (racemic) [Example 37, Cis-racemic-2-{[(3S,4R)-1-acryloyl-3-methylpiperidin-4-yl]amino}-N-ethyl-5H-pyrrolo[2,3-b]pyrazine-7-carboxamide] | 7.29 | 6.17
12 | C=CC(=O)N1CC[C@@H](Oc2cnc3[nH]cc(C(=O)NCC)c3n2)C[C@@H]1C (racemic) [Example 77, Trans-racemic-2-{[1-acryloyl-2-methylpiperidin-4-yl]oxy}-N-ethyl-5H-pyrrolo[2,3-b]pyrazine-7-carboxamide] | 6.94 | 6.25
13 | C=CC(=O)N1CC[C@@H](Oc2cnc3[nH]cc(C(=O)NCC)c3n2)[C@H](C)C1 (single isomer, unassigned) [Example 47] | 7.06 | 6.44
14 | C=CC(=O)N1C[C@H](Nc2ncnc3[nH]ccc23)CC[C@@H]1CNC(C)=O (racemic) [Example 88, rac-N-(((2R,5R)-5-((7H-pyrrolo[2,3-d]pyrimidin-4-yl)amino)-1-acryloylpiperidin-2-yl)methyl)acetamide] | 6.86 | 5.46
15 | C=CC(=O)N1CCC(Oc2cnc3[nH]cc(C(=O)NC45CC(C4)C5)c3n2)CC1 [Example 200, 2-[(1-acryloylpiperidin-4-yl)oxy]-N-(bicyclo[1.1.1]pent-1-yl)-5H-pyrrolo[2,3-b]pyrazine-7-carboxamide] | 7.34 | 6.83
16 | C=CC(=O)N1CC[C@H](Nc2cnc3[nH]cc(C(=O)NCC)c3n2)C[C@H]1C (single isomer, unassigned) [Example 41] | 7.66 | 6.83
17 | C=CC(=O)N1CCC[C@H](Nc2cnc3[nH]cc(C(=O)NCC)c3n2)C1 (single isomer, unassigned) [Example 36] | 7.27 | 6.75

Further lines, with some results ahead:

Row | pIC50 (JAK3 enzyme) | Compound | pIC50 [1]
18 | 7.74 | C=CC(=O)N1CCC(Oc2cnc3[nH]cc(C(=O)NC(C)C4CC4)c3n2)CC1 (racemic) [Example 220, Racemic-2-[(1-acryloylpiperidin-4-yl)oxy]-N-(1-cyclopropylethyl)-5H-pyrrolo[2,3-b]pyrazine-7-carboxamide] | 7.00
19 | 7.34 | C=CC(=O)N1CC[C@@H](Nc2cnc3[nH]cc(C(=O)NCC(C)(F)F)c3n2)[C@@H](OC)C1 [Example 321, 2-{[(3S,4R)-1-acryloyl-3-methoxypiperidin-4-yl]amino}-N-(2,2-difluoropropyl)-5H-pyrrolo[2,3-b]pyrazine-7-carboxamide] | 6.51
20 | 7.38 | C=CC(=O)N1CC[C@H](Nc2cnc3[nH]cc(C(=O)NCC4CCCC4)c3n2)[C@H](OC)C1 [Example 284, 2-{[(3R,4S)-1-acryloyl-3-methoxypiperidin-4-yl]amino}-N-(cyclopentylmethyl)-5H-pyrrolo[2,3-b]pyrazine-7-carboxamide] | 6.73
21 | 7.25 | C=CC(=O)N1CCN(c2cnc3[nH]cc(C(=O)N[C@H](C)COC)c3n2)CC1(C)C [Example 327] | 6.58
22 | 7.19 | C=CC(=O)N1CCC(Oc2cnc3[nH]cc(C(=O)NC(C)(C)CC)c3n2)CC1 [Example 209, 2-[(1-acryloylpiperidin-4-yl)oxy]-N-(2-methylbutan-2-yl)-5H-pyrrolo[2,3-b]pyrazine-7-carboxamide] | 6.69
23 | 7.68 | C=CC(=O)N1CCC(C)(Nc2cnc3[nH]cc(C(=O)NC4CCC4)c3n2)CC1 [Example 324, 2-[(1-acryloyl-4-methylpiperidin-4-yl)amino]-N-cyclobutyl-5H-pyrrolo[2,3-b]pyrazine-7-carboxamide] | 6.69
24 | 7.52 | C=CC(=O)N1CCN(c2cnc3[nH]cc(C(=O)N[C@H](CC)CC#N)c3n2)C[C@@H]1CC(C)C [Example 314, 2-[(3S)-4-acryloyl-3-(2-methylpropyl)piperazin-1-yl]-N-[(2R)-1-cyanobutan-2-yl]-5H-pyrrolo[2,3-b]pyrazine-7-carboxamide] | 6.94
25 | 7.70 | C=CC(=O)N1CCC(Oc2cnc3[nH]cc(C(=O)N[C@H](C)COC)c3n2)CC1 [Example 214, 2-[(1-acryloylpiperidin-4-yl)oxy]-N-[(2R)-1-methoxypropan-2-yl]-5H-pyrrolo[2,3-b]pyrazine-7-carboxamide] | 7.24
26 | 7.66 | C=CC(=O)N1CCC(Oc2cnc3[nH]cc(C(=O)N[C@H](C)CC)c3n2)CC1 [Example 227, 2-[(1-acryloylpiperidin-4-yl)oxy]-N-[(2R)-butan-2-yl]-5H-pyrrolo[2,3-b]pyrazine-7-carboxamide] | 6.84
27 | 7.80 | C=CC(=O)N1CCC(Oc2cnc3[nH]cc(C(=O)N[C@@H](C)CC)c3n2)CC1 [Example 205, 2-[(1-acryloylpiperidin-4-yl)oxy]-N-[(2S)-butan-2-yl]-5H-pyrrolo[2,3-b]pyrazine-7-carboxamide] | 7.03
28 | 7.60 | C=CC(=O)N1CCC(Oc2cnc3[nH]cc(C(=O)N[C@H]4CC[C@@H](F)C4)c3n2)CC1 [Example 225, 2-[(1-acryloylpiperidin-4-yl)oxy]-N-[(1S,3R)-3-fluorocyclopentyl]-5H-pyrrolo[2,3-b]pyrazine-7-carboxamide] | 6.77
